Laboratory results from patent US20180044304A1, “1,3,4-OXADIAZOLE AND THIADIAZOLE COMPOUNDS AS IMMUNOMODULATORS” (AURIGENE DISCOVERY TECHNOLOGIES LIMITED, priority 2015, published 2018).

Molecular target: T1, Recombinant mouse PD-L1 (Mus musculus, UniProt Q9EP73)
T1 construct: Fc (Fc chimera); purchased R&D Systems 1019-B7-100
Experiment: Rescue of mouse splenocyte proliferation in the presence of recombinant PD-L1 (CFSE proliferation assay)
Format: cell-based
Conditions: 100 nM compound; anti-CD3/CD28 stimulated C57 BL6 mouse splenocytes with PD-L1; 72 h; stimulated splenocyte proliferation = 100%; read-out: Percent rescue of splenocyte proliferation (@100 nM compound concentration)
Protocol: Rescue of Mouse Splenocyte Proliferation in the Presence of Recombinant PD-L1
Recombinant mouse PD-L1 (rm-PDL-1, cat no: 1019-B7-100; R&D Systems) were used as the source of PD-L1.
Mouse splenocytes harvested from 6-8 weeks old C57 BL6 mice; RPMI 1640 (GIBCO, Cat #11875); DMEM with high glucose (GIBCO, Cat #D6429); Fetal Bovine Serum [Hyclone, Cat #SH30071.03]; Penicillin (10000 unit/mL)-Streptomycin(10,000 μg/mL) Liquid (GIBCO, Cat #15140-122); MEM Sodium Pyruvate solution 100 mM (100×), Liquid (GIBCO, Cat #11360); Nonessential amino acid (GIBCO, Cat #11140); L-Glutamine (GIBCO, Cat #25030); Anti-CD3 antibody (eBiosciences—16-0032); Anti-CD28 antibody (eBiosciences—16-0281); ACK lysis buffer (1 mL) (GIBCO, Cat #-A10492); Histopaque (density-1.083 gm/mL) (SIGMA 10831); Trypan blue solution (SIGMA-T8154); 2 mL Norm Ject Luer Lock syringe-(Sigma 2014-12); 40 μm nylon cell strainer (BD FALCON 35230); Hemacytometer (Bright line-SIGMA Z359629); FACS Buffer (PBS/0.1% BSA): Phosphate Buffered Saline (PBS) pH 7.2 (HiMedia TS1006) with 0.1% Bovine Serum Albumin (BSA) (SIGMA A7050) and sodium azide (SIGMA 08591); 5 mM stock solution of CFSE: CFSE stock solution was prepared by diluting lyophilized CFSE with 180 μl of Dimethyl sulfoxide (DMSO C2H6SO, SIGMA-D-5879) and aliquoted in to tubes for further use. Working concentrations were titrated from 10 μM to 1 μM. (eBioscience-650850-85); 0.05% Trypsin and 0.02% EDTA (SIGMA 59417C); 96-well format ELISA plates (Corning CLS3390); BD FACS caliber (E6016); Recombinant mouse B7-H1/PDL1 Fc Chimera, (rm-PD-L1 cat no: 1019-B7-100).
Splenocytes harvested in a 50 mL falcon tube by mashing mouse spleen in a 40 μm cell strainer were further treated with 1 mL ACK lysis buffer for 5 min at room temperature. After washing with 9 mL of RPMI complete media, cells were re-suspended in 3 mL of 1× PBS in a 15 mL tube. 3 mL of Histopaque was added carefully to the bottom of the tube without disturbing overlaying splenocyte suspension. After centrifuging at 800×g for 20 min at room temperature, the opaque layer of splenocytes was collected carefully without disturbing/mixing the layers. Splenocytes were washed twice with cold 1× PBS followed by total cell counting using Trypan Blue exclusion method and used further for cell based assays.
Splenocytes were cultured in RPMI complete media (RPMI+10% fetal bovine serum+1 mM sodium pyruvate+10,000 units/mL penicillin and 10,000 μg/mL streptomycin) and maintained in a CO2 incubator with 5% CO2 at 37° C.
CFSE is a dye that passively diffuses into cells and binds to intracellular proteins. 1×10^6 cells/mL of harvested splenocytes were treated with 5 μM of CFSE in pre-warmed 1× PBS/0.1% BSA solution for 10 min at 37° C. Excess CFSE was quenched using 5 volumes of ice-cold culture media to the cells and incubated on ice for 5 min. CFSE labelled splenocytes were further given three washes with ice cold complete RPMI media. CFSE labelled 1×10^5 splenocytes added to wells containing either MDA-MB231 cells (1×10^5 cells cultured in high glucose DMEM medium) or recombinant human PDL-1 (100 ng/mL) and test compounds. Splenocytes were stimulated with anti-mouse CD3 and anti-mouse CD28 antibody (1 μg/mL each) and the culture was further incubated for 72 h at 37° C. with 5% CO2. Cells were harvested and washed thrice with ice cold FACS buffer and % proliferation was analysed by flow cytometry with 488 nm excitation and 521 nm emission filters.
Percent splenocyte proliferation was analysed using cell quest FACS program and percent rescue of splenocyte proliferation by compound was estimated after deduction of % background proliferation value and normalising to % stimulated splenocyte proliferation (positive control) as 100%. • Stimulated splenocytes: Splenocytes+anti-CD3/CD28 stimulation • Background proliferation: Splenocytes+anti-CD3/CD28+PD-L1 • Compound proliferation: Splenocytes+anti-CD3/CD28+PD-L1+Compound […]

T1 sequence (Q9EP73 with tags, fused parts or gaps limits assumed): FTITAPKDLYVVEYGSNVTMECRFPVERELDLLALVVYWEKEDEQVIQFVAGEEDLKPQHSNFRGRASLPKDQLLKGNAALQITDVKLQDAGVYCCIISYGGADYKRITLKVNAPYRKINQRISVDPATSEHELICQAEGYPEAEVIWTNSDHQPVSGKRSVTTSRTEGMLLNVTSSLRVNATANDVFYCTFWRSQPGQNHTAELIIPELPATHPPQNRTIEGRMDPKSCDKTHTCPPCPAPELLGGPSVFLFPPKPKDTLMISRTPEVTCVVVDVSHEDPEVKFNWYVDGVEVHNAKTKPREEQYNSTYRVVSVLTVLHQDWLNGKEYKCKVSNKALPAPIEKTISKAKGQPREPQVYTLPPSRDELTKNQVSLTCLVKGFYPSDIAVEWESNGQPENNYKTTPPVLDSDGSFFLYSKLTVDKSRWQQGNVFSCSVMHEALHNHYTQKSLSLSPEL

Row | activation at 0.1 µM [%] | SMILES
1 | 29 | NCCCC[C@H](NC(=O)N[C@@H](CC(N)=O)c1nnc([C@@H](N)CO)o1)C(=O)O [Compound 13]
2 | 23 | NC(=O)C[C@H](NC(=O)N[C@@H](Cc1ccccc1)C(=O)O)c1nnc([C@@H](N)CO)o1 [Compound 15]
3 | 37 | CC(O)[C@H](NC(=O)N[C@@H](CC(N)=O)c1nnc([C@@H](N)CC(=O)O)o1)C(=O)O (stereo partly drawn) [Compound 16]
4 | 41 | CC(O)[C@H](NC(=O)N[C@@H](CCC(=O)O)c1nnc([C@@H](N)CCCCN)o1)C(=O)O (stereo partly drawn) [Compound 18]
5 | 74 | NC(=O)CC[C@H](NC(=O)N[C@@H](CO)c1nnc([C@@H](N)Cc2c[nH]c3ccccc23)o1)C(=O)O [Compound 20]
6 | 47 | CSC[C@H](N)c1nnc([C@H](CC(N)=O)NC(=O)N[C@H](C(=O)O)C(C)O)o1 (stereo partly drawn) [Compound 24]
7 | 66 | N[C@@H](CO)c1nnc([C@H](Cc2c[nH]c3ccccc23)NC(=O)N[C@@H](CC(=O)O)C(=O)O)o1 [Compound 28]

Further lines, the molecule ahead of its results:

Row | SMILES | activation at 0.1 µM [%]
8 | NCCCC[C@H](N)c1nnc([C@H](CC(N)=O)NC(=O)N[C@@H](CCC(=O)O)C(=O)O)o1 [Compound 1] | 79
9 | CCC(C)[C@H](NC(=O)N[C@@H](CCC(=O)O)C(=O)O)c1nnc([C@@H](N)CCC(=O)O)o1 (stereo partly drawn) [Compound 2] | 49
10 | CC(O)[C@H](NC(=O)N[C@@H](CC(N)=O)c1nnc([C@@H](N)CCCCN)o1)C(=O)O (stereo partly drawn) [Compound 4] | 70
11 | CCC(C)[C@H](NC(=O)N[C@H](C(=O)O)C(C)O)c1nnc([C@@H](N)CO)o1 (stereo partly drawn) [Compound 5] | 16
12 | CC(O)[C@H](NC(=O)N[C@@H](CCCCN)c1nnc([C@@H](N)CO)o1)C(=O)O (stereo partly drawn) [Compound 6] | 30
13 | CC(O)[C@H](NC(=O)N[C@@H](Cc1ccccc1)c1nnc([C@@H](N)CO)o1)C(=O)O (stereo partly drawn) [Compound 7] | 29
14 | N[C@@H](Cc1ccc(O)cc1)c1nnc([C@@H]2CCCN2C(=O)N[C@@H](Cc2ccc(O)cc2)C(=O)O)o1 [Compound 8] | 60
15 | CC(O)[C@H](NC(=O)N[C@H](c1nnc([C@@H](N)C(C)O)o1)C(C)O)C(=O)O (stereo partly drawn) [Compound 9] | 29
16 | NC(=O)C[C@H](NC(=O)N[C@@H](CC(=O)O)C(=O)O)c1nnc([C@@H](N)CO)o1 [Compound 10] | 34
17 | NCCCC[C@H](N)c1nnc([C@H](CC(N)=O)NC(=O)N[C@@H](CO)C(=O)O)o1 [Compound 11] | 30
18 | CCC(C)[C@H](N)c1nnc([C@@H](NC(=O)N[C@@H](CCC(=O)O)C(=O)O)C(C)CC)o1 (stereo partly drawn) [Compound 12] | 68
